Laboratory results published in patent publication US6177592A, “Compounds” (priority 1997, dated 2001).

Columns and labels:
[1] = tested on: heat shock protein of 70 kDa (HSP70); assay: Induction of heat shock protein of 70 kDa in HL-60; format: cell-based, human; set-up: key to Induction of Heat Shock Protein: -: no induction was noted; ±: the induction was slight; indicates degree of intensity of induction and the more the numbers of "+", the more the intensity of induction; ++: the more the numbers of "+", the more the intensity of induction; +++: the more the numbers of "+", the more the intensity of induction; conditions: for action of inducing the heat shock protein (in words): Example 14, compared with GM and CM
Experimental: (1) An RPMI 1640 medium (5 ml) containing 10% of fetal bovine serum which contained 2×10^5 cells/ml of HL-60 (ATCC CCL-24C) was placed in each well of a six-well plate, incubated at 37° C. for 24 hours in the presence of 5% of CO2, then GM was added thereto to make its final concentration 0, 0.5, 1.0, 3.0, 5.0, 10.0 or 20.0 μM and the incubation was further continued for eight hours more.
After completion of the incubation, cell numbers were counted and the cells were recovered by centrifugation and washed with PBS to prepare GM-treated cells. In the meanwhile, cells which were heated at 45° C. for ten minutes followed by subjecting to the same incubation were prepared as well.
The cells treated as such were subjected to an SDS-PAGE by a method mentioned in "Molecular Cloning" [Cold Spring Harbor Laboratory Press, (1989)]. The treated cells were suspended in an SDS-PAGE sample buffer to make the concentration 2.5×10^6 cells/ml, the resulting cell suspension was treated at 100° C. for ten minutes and each 5 μl thereof was applied to two sheets of SDS-PAGE gels (5% stacking gel; 10% separation gel) to conduct an electrophoresis. One of the gels was stained with Coomassie Brilliant Blue R250 while another gel was subjected to a blotting to a polyvinylidene difluoride transfer membrane (Immobilon™, manufactured by Millipore, catalog no. IPVH000-10). The membrane was subjected to a blocking at 4° C. for one night with Block Ace (manufactured by Dainippon Pharmaceutical; catalog no. UK-B25).
The blocked membrane was made to react with monoclonal antibody HSP 72/73 (Ab-1) (manufactured by Oncogene Research Products, catalog no. HSP01) which specifically reacted with heat-induced heat shock protein of 70 kDa and washed with TBS containing 0.05% of Tween 20 followed by further washing with TBS. After that, it was made to react with peroxidase-compounded secondary antibody HRP-Rabbit Anti-Mouse IgG (H+L) (manufactured by Zymed Laboratories, catalog no. 61-6520) and washed by the same manner as in the above operation. The membranes which were treated with primary and secondary antibodies as such were made to react with Renaissance™ (a chemiluiminor reagent manufactured by Dupont NEN, catalog no. NEL-100) and photosensitized with an X-ray film to detect the induction of heat shock protein of 70 kDa.
(2) CM was added to the incubated cells to make its final concentration 0, 10, 20, 30, 40 or 50 μM and expression of HSP70 was measured by the method as mentioned in Example 14-(1).

[2] = tested on: Bacillus subtilis IFO 3021; assay: Antibacterial activity, viable cell numbers; format: cell-based
Experimental: Bacillus subtilis IFO 3021 was incubated (by mans of a seed culture) overnight in a sensitive bouillon medium (manufactured by Nissui). Absorbance at 600 nm was measured and viable cell numbers were calculated from the previously-prepared calibration curve showing the relation between the viable cell numbers and absorbance at 600 nm. The seed-cultured liquid was diluted with a fresh sensitive bouillon medium to make the concentration 1×10^6 cells/ml and each 180 μl thereof was placed in each well of the 96-well microtiter plate. Each 20 μl of aqueous solution of GM (4 mg/ml or 2 mg/ml) or water was added to each well followed by allowing to a stationary culture at 37° C. for one night (main incubation) In the meanwhile, a part of the seed culture liquid was diluted with sterilized water, spread onto a sensitive bouillon agar plate medium and incubated at 37° C. for one night and the colonies were counted to measure the precise viable cell numbers.
The cultured liquid in each of the wells was diluted with sterilized water, spread onto a sensitive bouillon agar plate medium and incubated at 37° C. for one night and the colonies were counter to measure the viable cell numbers.

[3] = tested on: HL-60 cells (promyelocytic leukemia cell); assay: Viable cell numbers of HL-60 (growth inhibition of cancer cells); format: cell-based, human
Experimental: (1) Each 0.5 ml of 0.2 mM CM, 0.8 mM CM or 1.6 mM CM was added to 4.5 ml of RPMI 1640 medium containing 10% of fetal calf serum and 2.5×10^5HL-60 cells (promyelocytic leukemia cell) (ATCC CCL-240) and incubated at 37° C. for 24 hours or 48 hours in the presence of 5% carbon dioxide gas and the numbers of viable cells were measured.
In FIG. 28, open square (.quadrature.) indicates the case where CM is added followed by culturing for 24 hours; black square (.box-solid.) indicates the case where CM is added followed by culturing for 48 hours; open triangle (Δ) indicates the case where no sample was added followed by culturing for 24 hours; and black triangle (.tangle-solidup.) indicates the case where no sample was added followed by culturing for 48 hours.
(4) HL-60 cells (ATCC CCL240) which were incubated at 37° C. in an RPMI 1640 medium (manufactured by Nissui) containing 10% of fetal calf serum (manufactured by Gibco) treated at 56° C. for 30 minutes were suspended in the above medium to make the concentration 2.5×10^5cells/4.5 ml. To this suspension was added 0.5 ml of 100 μM aqueous solution of GM (final concentration: 10 μM) followed by incubating at 37° C. in the presence of 5% carbon dioxide gas for 24 hours, 48 hours and 72 hours. […]

EAC = assay: EAC/DDY mice macrobiotic effect; format: in vivo

N[C@@H](CSC1C=C(O)C(=O)C1)C(=O)O (stereo partly shown) [CM]
Induction of Heat Shock Protein ([1]; 10 μM CM): + | Induction of Heat Shock Protein ([1]; 20 μM CM): ++ | Induction of Heat Shock Protein ([1]; 30 μM CM): ++ | Induction of Heat Shock Protein ([1]; 40 μM CM): + | Induction of Heat Shock Protein ([1]; 50 μM CM): + | action of inducing the heat shock protein (in words) [1]: action of inducing the heat shock protein | antibacterial activity (in words) ([2]; compared with GM): same results | inhibition activity of the growth of cancer cells ([3]; 0.5 ml of 0.2, 0.8 or 1.6 mM CM added to 4.5 ml, 24 or 48 hours): intensive inhibition activity of the growth of cancer cells | macrobiotic effect (EAC): same macrobiotic effect

N[C@@H](CCC(=O)N[C@@H](CSC1C=C(O)C(=O)C1)C(=O)NCC(=O)O)C(=O)O (stereo partly shown) [GM, 2-hydroxy-4-glutathion-S-yl-2-cyclopenten-1-one]
Induction of Heat Shock Protein ([1]; 0.5 μM GM, eight hours): ± | Induction of Heat Shock Protein ([1]; 1.0 μM GM, eight hours): ± | Induction of Heat Shock Protein ([1]; 3.0 μM GM, eight hours): + | Induction of Heat Shock Protein ([1]; 5.0 μM GM, eight hours): + | Induction of Heat Shock Protein ([1]; 10 μM GM, eight hours): ++ | Induction of Heat Shock Protein ([1]; 20 μM GM, eight hours): ++ | action of inducing the heat shock protein (in words) [1]: action of inducing the heat shock protein | viable cell numbers ([2]; 400 μg/ml final, one night at 37° C., water 1.3×10^8): 4.4×10^7 cells/ml | viable cell numbers and viability of cells ([3]; 10 μM GM, 24, 48 and 72 hours, vs water control): significantly reduced | macrobiotic effect (EAC): same macrobiotic effect
